Ends that are not written are not given here.

This is an account of results in patent EP0907658B1 (PRINCE OF WALES MEDICAL RESEARCH INSTITUTE LIMITED, priority 1996, dated 2004).

Assay [1] deals with neuropeptide Y Y1 receptor. The following applies: studies in vivo; cited from earlier work.
Assay [2] relates to neuropeptide Y Y2 (prejunctional). The following applies: studies in vivo; cited from earlier work.
Assay [3] deals with Y2-like receptors. The assay can be described thus: Inhibition of the increase in pulse interval evoked by vagus nerve stimulation in anaesthetised rats (prejunctional activity). The class given is in vivo. The following applies: for EC50 ΔP1%: change in pulse interval, anaesthetised rats, intravenous peptide; for in vivo activity at Y2 receptors (potency as inhibitor of the effect of vagal stimulation on heart rate): compared with Ac[L28,L31]NPY24-36. As for the experimental part:
(§1) Experiments were carried out on adult rats (Wistar) of both sexes (250-350g), anaesthetised with sodium pentobarbitone (Nembutal, Boehringer-Ingleheim; 60 mg/kg, i.p.). The trachea was cannulated and the animal artificially ventilated. The femoral vein was cannulated for administration of peptides and further doses of anaesthetic. The left femoral artery was cannulated to record arterial pressure. Both vagus nerves were cut. […] The frequency was chosen to increase pulse interval by approximately 100 ms, a submaximal effect on this variable. The electrocardiogram was measured using needle electrodes and monitored on one channel of an osciloscope. Pulse interval (the period between successive beats of the heart) was recorded beat-by-beat by triggering from ECG. Pulse interval and arterial pressure were recorded on the pen recorder.
Dose-response curves were constructed from group data for all rats. Because of the long time-course of action of the peptides tested, not all peptides were given to each rat. Usually however, each rat received neuropeptide Y and two other peptides.
As an indication of prejunctional activity two parameters were measured; the maximum percent inhibition of the increase in pulse interval evoked by stimulation of the vagus nerve following injection of peptide and the time to half recovery of this effect (T50). For pressor action, an indicator of postjunctional activity, two parameters were also measured; the peak pressor response following injection of peptide and the duration of the increase in blood pressure. These indices give a reliable measure of the actions of a peptide at pre-and postjunctional sites, and have been used previously in this laboratory for this purpose; Potter et al., 1989; Potter et al., 1991). Results were analysed using a one-way ANOVA.

Assay [4] concerns Y1 receptors. Kind of assay: Pressor response (blood pressure increase) after peptide injection in anaesthetised rats (postjunctional activity). In kind it is in vivo. As for the experimental part: as §1, with “The” for “The frequency was chosen to increase pulse interval by approximately 100 ms, a submaximal effect on this variable. The”
Dose-response curves were constructed from group data for all rats. Because of the long time-course of action of the peptides tested, not all peptides were given to each rat.
As an indication of prejunctional activity two parameters were measured; the maximum percent inhibition of the increase in pulse interval evoked by stimulation of the vagus nerve following injection of peptide and the time to half recovery of this effect (T50). For pressor action, an indicator of postjunctional activity, two parameters were also measured; the peak pressor response following injection of peptide and the duration of the increase in blood pressure. […] Results were analysed using a one-way ANOVA.

The subject of assay [5] is human Y2 receptor. The assay can be described thus: [125I]NPY receptor binding assay on SMS-MSN cells. The following applies: for IC50: SMS-MSN cells, 30 pM [125I]NPY. As for the experimental part: SK-N-MC cells expressing the human Y1 receptor and SMS-MSN cells expressing the human Y2 receptor were obtained from the ATCC. They were cultured in 1:1 DMEM:Ham's F12 medium (ICN) containing 10% fetal calf serum, 0.1% non-essential amino acids, 0.2 mM glutamine, and 0.056% sodium bicarbonate. Confluent cells were harvested in scraping and pellets were stored at -80°C. On the day of use cells were thawed, washed once in binding buffer salts, passed several times through a 22 ga. needle, and the protein content was assayed using bicinchoninic acid (BCA kit, Pierce).
Just before use, plates were filtered and washed twice with 50 mM Tris-HCI pH 7.4 / 0.1% BSA. […] Binding was terminated by filtration. […] Specific binding was analysed by nonlinear regression using a single-site fitting function (Graphpad Prism). Nonspecific binding was defined by binding in the presence of 1 µM competitor.

In assay [6] the test system is transmitter release from renal nerves. Kind of assay: Kidney blood flow: increase of renal vascular resistance elicited by renal nerve stimulation. In kind it is in vivo, dogs. The following applies: 40 nmol dose; Figure 1. As for the experimental part:
Experiments were carried out in six, adult, mongrel dogs of both sexes weighing between 18 and 26 kg. The dogs were anaesthetised with a bolus injection of sodium pentobarbitone (36 mg/kg intravenous; Nembutal, Boehringer Ingelheim) and then maintained on an infusion (2-3 mg/kg/hr). The animal was artificially ventilated, maintained at constant temperature and blood pressure and heart rate were monitored continuously.
The left kidney was exposed retroperitoneally and renal arterial blood flow was monitored continuously (Pernow & Lundberg, 1989a), using a transonic flow probe (Transonic System Inc., N.Y.). Postganglionic nerves to the kidney were isolated, cut and placed over bipolar, platinum electrodes for stimulation (1-10 Hz, 5-10 V, 1-5 msec).
The renal nerve was stimulated over a range of frequencies (1-10 Hz) for 30 secs and a frequency-response curve constructed. The responses were measured at the peak change in flow. […] Responses were reported as change in vascular resistance.

Assay [7] concerns human neuropeptide Y Y1 receptor. The following applies: Y1 receptor expressed in fibroblast cells; cited from earlier work.
In assay [8] the test system is neuropeptide Y Y2 receptor subtype. The following applies: SMS-KAN cells; cited from earlier work.
The test system of assay [9] is neuropeptide Y Y1 receptor type. The following applies: SK-N-MC cells; cited from earlier work.

Turning to “(Leu^17, Glu^19, Ala^21, Ala^22, Glu^23, Leu^28, Leu^31) neuropeptide Y-(13-36) [ANA neuropeptide Y-(13-36)]”, the pressor activity entry in assay [1] is reported as “retained significant pressor activity”. Moreover, the prejunctional activity entry in assay [2] is given as “prejunctional activity equivalent to the whole neuropeptide Y molecule”.

“Ac-ARAALNAATRQRY-NH2 [Ac[A24,26,27,30,31,L28]NPY24-36]”: in assay [3], the “EC50 ΔP1%” value came out at 0.56 nmol and the “in vivo activity at Y2 receptors (potency as inhibitor of the effect of vagal stimulation on heart rate)” value is “enhanced in vivo activity at Y2 receptors”.

“Ac-ARHALNLLTRQRY-NH2 [Ac[A24,A27,L28,L31]NPY24-36, Ac[Ala24, Ala27, Leu28, Leu31]NPY(24-36)]”: the “direct effect on the circulation” value in [4] (40 nmol dose, Table 1) was “exerted no direct effect on the circulation”. Further, in assay [3], the “EC50 ΔP1%” value stood at 0.89 nmol and the “in vivo activity at Y2 receptors (potency as inhibitor of the effect of vagal stimulation on heart rate)” value is given as “enhanced in vivo activity at Y2 receptors”. Moreover, the “affinity for NPY Y2 receptors” value in [5] (in words) is recorded as “high affinity for NPY Y2 receptors”. Also, in assay [6], the “inhibition of the increase of renal vascular resistance elicited by renal nerve stimulation” value is “almost completely inhibited the effect of nerve stimulation”.

As to “Ac-ARHYLNLLTRQRY-NH2 [Ac[A24,L28,L31]NPY24-36]”, the “EC50 ΔP1%” value in assay [3] is 0.46 nmol.

What is called IC50 is the concentration needed to halve the response being measured. As to “Ac-LAHYLNLLTRQRY-NH2 [Ac[A25,L28,L31]NPY24-36]”, in [3], the “EC50 ΔP1%” value turned out to be 1.58 nmol. For the same substance, the IC50 in assay [5] turned out to be 2 nM.

Take “Ac-LAHYRNLLTRQRY-NH2 [Ac[A25,R28,L31]NPY24-36]”: in [3], the “EC50 ΔP1%” value was 1.95 nmol.

Consider “Ac-LRAYLNLLTRQRY-NH2 [Ac[A26,L28,L31]NPY24-36]”, for which the “EC50 ΔP1%” value in [3] is 1.26 nmol.

On to “Ac-LRHALNLLTRQRY-NH2 [Ac[A27,L28,L31]NPY24-36]”, for which the “EC50 ΔP1%” value in assay [3] worked out at 0.52 nmol.

For “Ac-LRHYANLLTRQRY-NH2 [Ac[A28,L31]NPY24-36]”, the “EC50 ΔP1%” value in assay [3] came out at 2.75 nmol.

As for “Ac-LRHYLALLTRQRY-NH2 [Ac[L28,A29,L31]NPY24-36]”, in [3], the “EC50 ΔP1%” value was 1.48 nmol.

For the substance “Ac-LRHYLNALTRQRY-NH2 [Ac[L28,A30,L31]NPY24-36]”, in assay [3], the “EC50 ΔP1%” value amounted to 0.39 nmol.

For “Ac-LRHYLNLATRQRY-NH2 [Ac[L28,A31]NPY24-36]”, the “EC50 ΔP1%” value in [3] was determined as 0.78 nmol.

Consider “Ac-LRHYLNLLARQRY-NH2 [Ac[L28,L31,A32]NPY24-36]”, for which the “EC50 ΔP1%” value in [3] came to 6.46 nmol.

As to “Ac-LRHYLNLLTRQRY-NH2 [Ac[L28,L31]NPY24-36]”, the “EC50 ΔP1%” value in assay [3] was found to be 3.16 nmol. Moreover, the “increase in cytosolic calcium” value in assay [7] is on record as “did hot stimulate”. Also, the “affinity for the neuropeptide Y Y2 receptor subtype” value in assay [8] is listed as “significant affinity”. Further, the IC50 in assay [5] was 3.9 nM. Further, in [9], the “affinity for the neuropeptide Y Y1 receptor type” value was “no affinity”.

As to AcNPY 24-36, the “Increase in BP (rel to NPY)” value in assay [4] (anaesthetised rats, †: No response to 10 nmole dose) is reported as “Of”.

For “Ac[A26,A27,L28,L31]NPY24-36 (Ac-LRAALNLLTRQRY; ends and bridges not checked; UniProt P01303 52-64, looked up, variant H26A Y27A I28L I31L) [Ac[A26,27,L28,31]NPY24-36]”, the “in vivo activity at Y2 receptors (potency as inhibitor of the effect of vagal stimulation on heart rate)” value in assay [3] is listed as “enhanced in vivo activity at Y2 receptors”.

Regarding “Ac[L28,I30]NPY24-36 (Ac-LRHYLNIITRQRY; ends and bridges not checked; UniProt P01303 52-64, looked up, variant I28L L30I)”, in assay [3], the “EC50 ΔP1%” value is 1.26 nmol.

As to Neuropeptide Y [NPY], the “change of blood pressure” value in [4] (in vivo in rats, at the doses tested) was “raised blood pressure significantly in a dose-dependent manner”.
